# Experimental data published in publication PMC7002685, “Inhibition of vascular calcification by inositol phosphates derivatized with ethylene glycol oligomers” (Nature Communications, 2020).
# Where “and” joins values, the source holds several entries; their conditions need not be identical. Equal entries are not always repeated.
# Experiments:
# [1] = test system: transformation of CPP1 to CPP2 in pooled human serum; experiment: In vitro serum calcification propensity (T50) screening assay; assay type: biochemical; set-up: key to T50: T50 in minutes (time to 50% CPP phase transition); details: for activity/unit mass: mean c350 x mw (Na salt); for concentration upon which a T50 of 350 min is reached (c350), mean: mean of n experiments
# CPPs = experiment: TEM and selected area electron diffraction of CPPs; set-up: species or system human
# Procedure: To confirm the screening assay data, the hydrodynamic diameter of the CPPs was measured by dynamic light scattering (DLS). […] The CPP2 size deduced by DLS is slightly larger than the size derived from transmission electron microscopy (TEM) (Supplementary Figs. 4c and 7a), the latter being in line with previous work[52].
# CPPs were prepared (vide supra) and TEM was performed similar to previous reports. […] […] Herein, cell culture grade 50 mM HEPES (1 M HEPES, 5630056, Thermo Fischer Scientific) was used for washing steps, to avoid high solvent and particle background in TEM. In brief, CPPs at 0.5 mg calcium/mL were drop-casted onto a copper grid, 300 mesh, covered with a continuous 8-nm-thick carbon film. The TEM data were collected with an FEI Tecnai F30 FEG TEM operated at 300 kV acceleration voltage and equipped with a Gatan 749 MultiScan CCD camera (Thermo Fischer Scientific). The bright-field images were collected at ×39,000 magnification using a 10-μm objective aperture. To assess the crystallinity of the sample selected area diffraction patterns were collected in parallel at a camera length of 300 mm. The radii of the rings in the diffraction pattern were measured (1/nm) and the associated interplanar d-spacings (nm) were calculated.
# primary human VSMCs = experiment: VSMC viability (MTS), compounds only; assay type: cell-based; details: for VSMC viability (MTS), % of medium control: compound only
# [2] = 3 µM, individual experiments, Fig. 2a
# [3] = 10 µM, individual experiments, Fig. 2a
Structure (SMILES),"T50 [1, 2]","T50 [1, 3]",activity/unit mass [1] [mg/L],"concentration upon which a T50 of 350 min is reached (c350), mean [1] [µM]","CPP morphology (TEM) (CPPs; 100 µM, 14 h, 37 °C)","VSMC viability (MTS), % of medium control (primary human VSMCs; 0.01 µM, replicates Fig. 3a)","VSMC viability (MTS), % of medium control (primary human VSMCs; 0.1 µM)","VSMC viability (MTS), % of medium control (primary human VSMCs; 1 µM)","VSMC viability (MTS), % of medium control (primary human VSMCs; 10 µM)","VSMC viability (MTS), % of medium control (primary human VSMCs; 100 µM)",other results
"COCCOCCO[C@@H]1[C@@H](OP(=O)(O)O)[C@H](OCCOCCOC)[C@@H](OP(=O)(O)O)[C@@H](OP(=O)(O)O)[C@H]1OP(=O)(O)O [(OEG2)2-IP4, 4,6-Di-O-(methoxy-diethyleneglycol)-myo-inositol-1,2,3,5-tetrakis(phosphate)]",295.5 min and 257.733 min and 269.633 min,669.833 min and 505.133 min and 608.55 min,4.30,4.9,spherical-shaped CPP1s,106.7% and 112.6% and 127.9%,105.4% and 101.1% and 125.7%,106.9% and 113.8%,100.7% and 120.7%,101.2% and 99.46% and 122.9%,"T50 ([1]; 0.3 µM, individual experiments, Fig. 2a): 225.667 min and 200.6 min and 198.8 min; T50 ([1]; 1 µM, individual experiments, Fig. 2a): 245.5 min and 222.6 min and 227.433 min; T50 ([1]; concentration 0.3 μM, one value per experiment): 225.667 and 200.6 and 198.8; T50 ([1]; concentration 1 μM, one value per experiment): 245.5 and 222.6 and 227.433; T50 ([1]; concentration 3 μM, one value per experiment): 295.5 and 257.733 and 269.633; T50 ([1]; concentration 10 μM, one value per experiment): 669.833 and 505.133 and 608.55; stronger inhibition than (OEG11)2-IP4, activity by unit mass ([1]; from c350 in mg/L): 32%; concentration upon which a T50 of 350 min is reached (c350), single experiment ([1]; one value per experiment (lab journal reference E05-E40)): 4.3 µM and 5.9 µM and 5.0 µM and 3.6 µM and 5.4 µM; Concentration at T50 = 350 min mean ± s.d. (n) (c350) ([1]; pooled human serum, 10 mM calcium, 6 mM phosphate, 37 °C): 4.9 ± 0.8 µM and 4.3 ± 0.7 mg/L; CPP morphology (TEM) (CPPs; 10 µM): matched those of CPP2s; CPP crystallinity (selected area electron diffraction) (CPPs; 100 µM, 14 h, 37 °C): largely amorphous; changes in cell viability (primary human VSMCs; 0.01–100 µM): did not lead to any changes in cell viability"
"O=P(O)(O)O[C@H]1[C@H](OP(=O)(O)O)[C@@H](OP(=O)(O)O)[C@H](OP(=O)(O)O)[C@@H](OP(=O)(O)O)[C@H]1OP(=O)(O)O [IP6, myo-Inositol hexakisphosphate]",234.667 min and 274 min and 233.967 min and 253.933 min and 243.267 min and 241.767 min and 246.2 min and 235.9 min and 228.633 min and 203.267 min and 288.2 min and 222.867 min and 230.267 min and 213.667 min and 216.7 min and 265.633 min and 255.267 min,257.5 min and 310.933 min and 271.067 min and 277.3 min and 252.767 min and 292.233 min and 259.167 min and 287.2 min and 285.433 min and 258.3 min and 249.2 min and 255.267 min and 337.4 min and 269.2 min and 241.433 min and 220.9 min and 227.45 min and 265.233 min and 247.333 min and 278 min and 268.867 min,30.85,35.0,spindle-shaped CPP2s,107.6% and 117.7% and 127.9%,101.2% and 116.5% and 123.9%,102.4% and 110.2% and 123.7%,107.1% and 105.1% and 128.6%,108.9% and 116.9% and 143.6%,"T50 ([1]; 4.1 µM, individual experiments, Fig. 2a): 217.4 min and 239.4 min and 277.7 min and 241.067 min; T50 ([1]; 5 µM, individual experiments, Fig. 2a): 249.8 min and 203.1 min and 210 min; T50 ([1]; 8.2 µM, individual experiments, Fig. 2a): 256.2 min; T50 ([1]; 15 µM, individual experiments, Fig. 2a): 257.433 min and 252.1 min and 309.067 min and 247.867 min; T50 ([1]; 20 µM, individual experiments, Fig. 2a): 287.15 min and 265.7 min and 269.8 min; T50 ([1]; 30 µM, individual experiments, Fig. 2a): 345.45 min and 406.133 min and 372.8 min and 351.75 min and 343.7 min and 344.2 min and 259.35 min and 335.5 min and 347.9 min and 378.6 min and 321.233 min and 338 min and 297.667 min and 289.1 min and 328.133 min and 313.633 min and 374.867 min and 311.7 min and 330.9 min and 290.033 min and 322.15 min and 364.5 min and 339.867 min; T50 ([1]; 50 µM, individual experiments, Fig. 2a): 415 min and 521.55 min and 441.5 min and 442 min and 442.167 min and 430.55 min and 469.15 min and 469.7 min and 444.5 min and 341.15 min and 548.25 min and 437.6 min and 408.433 min and 339.067 min and 334.933 min and 396.5 min and 364.133 min and 373.7 min and 353.2 min and 360.8 min and 372.45 min and 446.2 min and 371.033 min and 410.7 min"
